Measured values: patent US20230372221A1, “USE OF THIOPYRIDINONE COMPOUNDS FOR PREVENTING THE FORMATION OF CUTANEOUS BLACKHEADS” (L'OREAL, priority 2020, published 2023)

Tested on: oxidation of the L-DOPA under the action of the bacterial extract (intracellular extract of Cutibacterium acnes CIP 53.117)
Assay: In vitro evaluation of the ability to inhibit the development of the colour (absorbance at 475 nm of L-DOPA + Cutibacterium acnes extract)
Assay type: biochemical
Settings: for inhibiting the development of the colour (result in words): compared with Reference (absence of treatment); for optical density at 475 nm: 32° C.; for % inhib (percentage of inhibition of the formation of the coloured product): from initial rate of oxidation between 10 and 40 minutes vs reference composition
Source text: This method is based on the measurement of absorbance, over time, carried out directly on a composition formed of a mixture of intracellular extract of bacteria of Cutibacterium acnes type, of 3,4-dihydroxy-L-phenylalanine (L-DOPA) and of a test compound. The measurements are compared with those carried out for a mixture of an intracellular extract of bacteria of Cutibacterium acnes type and of 3,4-dihydroxy-L-phenylalanine (L-DOPA), in the absence of test compound (reference). The method is adapted from a method for the enzymatic assay of the tyrosinase activity (Behbahani et al., Microchemical Journal (1993), 47, 251), which is based on the absorbance properties at 475 nm of a coloured intermediate of the pathway for the biosynthesis of melanin starting from L-DOPA, namely dopachrome, a product of the oxidation of L-DOPA. An intracellular extract of bacteria of Cutibacterium acnes CIP 53.117 type stored at 4° C. in the lyophilized form is suspended in 1×PBS (supplied by Gibco BRL Life Technologies) at a concentration of 6 mg/ml. A solution of L-DOPA at a concentration of 0.5 mg/ml is prepared by bringing together L-DOPA (supplied by Sigma-Aldrich) and milliQ water, so as to have an L-DOPA concentration of 1 mg/ml, then diluting with 1×PBS (Dulbecco's Phosphate Buffered Saline, supplied by Gibco BRL Life Technologies). The mixture of 50 μl of these two solutions and of 100 μl of 1×PBS (Dulbecco's Phosphate Buffered Saline, supplied by Gibco BRL Life Technologies) results in a composition with a total volume of 200 μl containing L-DOPA (at a concentration of 125 μg/ml) and Cutibacterium acnes extract (at a concentration of 1.5 mg/ml). The test compositions and the reference composition are introduced separately into wells of a 96-well microplate suitable for reading in visible spectrophotometry, and placed at a temperature of 32° C. The formation of a coloured product is monitored over time by spectrophotometry. To do this, the absorbance, or optical density (O.D.), is measured at 475 nm from the time 0 to the time 2 hours by means of a Spectra Max M5e reader and the Spectra Max software (the time 0 corresponds to the introduction of the composition into the wells). The ability to inhibit the development of the colour of a given compound was assessed by comparing the absorbance measurements obtained for the test compositions with those obtained for the reference composition. More specifically, the inhibitory effect of the test compound was evaluated by comparing the initial rate of oxidation of the L-DOPA under the action of the bacterial extract at 475 nm for the test composition with that of the reference composition in order to obtain a corresponding percentage of inhibition. In practice, the initial rate (Vi) of the oxidation reaction is calculated from the linear part of the curve of the graph of the absorbance values. As this part lies between 10 and 40 minutes (see the graph in FIG. 1), the initial rate of the oxidation reaction is determined using the following relationship: [formula] The percentage of inhibition (% inhib) of a given compound with regard to the formation of the coloured product is subsequently obtained using the values of the initial rate of the oxidation reaction for the reference composition (Viref) and for the test composition ([…]) according to the following relationship: [formula] Within the meaning of the invention, a compound is regarded as having an inhibitory effect if the % inhib value is at least 15%.

[1] = test compound 100 μM, duration 0 minutes
[2] = test compound 100 μM, duration 10 minutes
[3] = test compound 100 μM, duration 20 minutes
[4] = test compound 100 μM, duration 30 minutes
[5] = test compound 100 μM, duration 40 minutes
[6] = test compound 100 μM, duration 60 minutes
[7] = test compound 100 μM, duration 80 minutes
[8] = test compound 100 μM, duration 100 minutes
[9] = test compound 100 μM, duration 120 minutes

SMILES: CCNC(=O)c1ccc[nH]c1=S [Compound 1, N-ethyl-2-thioxo-1,2-dihydropyridine-3-carboxamide]
- inhibiting the development of the colour (result in words): very effective
- optical density at 475 nm (test compound 12.5 μM, duration 0 minutes): 0.0553
- optical density at 475 nm (test compound 12.5 μM, duration 10 minutes): 0.0553
- optical density at 475 nm (test compound 12.5 μM, duration 20 minutes): 0.0561
- optical density at 475 nm (test compound 12.5 μM, duration 30 minutes): 0.0569
- optical density at 475 nm (test compound 12.5 μM, duration 40 minutes): 0.0584
- optical density at 475 nm (test compound 12.5 μM, duration 60 minutes): 0.0605
- optical density at 475 nm (test compound 12.5 μM, duration 80 minutes): 0.0631
- optical density at 475 nm (test compound 12.5 μM, duration 100 minutes): 0.0661
- optical density at 475 nm (test compound 12.5 μM, duration 120 minutes): 0.0681
- % inhib (percentage of inhibition of the formation of the coloured product) (test compound 12.5 μM): 66%
- optical density at 475 nm (test compound 25 μM, duration 0 minutes): 0.0554
- optical density at 475 nm (test compound 25 μM, duration 10 minutes): 0.0560
- optical density at 475 nm (test compound 25 μM, duration 20 minutes): 0.0572
- optical density at 475 nm (test compound 25 μM, duration 30 minutes): 0.0587
- optical density at 475 nm (test compound 25 μM, duration 40 minutes): 0.0596
- optical density at 475 nm (test compound 25 μM, duration 60 minutes): 0.0601
- optical density at 475 nm (test compound 25 μM, duration 80 minutes): 0.0611
- optical density at 475 nm (test compound 25 μM, duration 100 minutes): 0.0627
- optical density at 475 nm (test compound 25 μM, duration 120 minutes): 0.0640
- % inhib (percentage of inhibition of the formation of the coloured product) (test compound 25 μM): 60%
- optical density at 475 nm (test compound 50 μM, duration 0 minutes): 0.0541
- optical density at 475 nm (test compound 50 μM, duration 10 minutes): 0.0565
- optical density at 475 nm (test compound 50 μM, duration 20 minutes): 0.0568
- optical density at 475 nm (test compound 50 μM, duration 30 minutes): 0.0569
- optical density at 475 nm (test compound 50 μM, duration 40 minutes): 0.0568
- optical density at 475 nm (test compound 50 μM, duration 60 minutes): 0.0575
- optical density at 475 nm (test compound 50 μM, duration 80 minutes): 0.0574
- optical density at 475 nm (test compound 50 μM, duration 100 minutes): 0.0598
- optical density at 475 nm (test compound 50 μM, duration 120 minutes): 0.0597
- % inhib (percentage of inhibition of the formation of the coloured product) (test compound 50 μM): 96%
- optical density at 475 nm [1]: 0.0568
- optical density at 475 nm [2]: 0.0555
- optical density at 475 nm [3]: 0.0548
- optical density at 475 nm [4]: 0.0561
- optical density at 475 nm [5]: 0.0555
- optical density at 475 nm [6]: 0.0557
- optical density at 475 nm [7]: 0.0559
- optical density at 475 nm [8]: 0.0564
- optical density at 475 nm [9]: 0.0567
- % inhib (percentage of inhibition of the formation of the coloured product) (test compound 100 μM): 100%

SMILES: O=C(O)CNC(=O)c1ccc[nH]c1=S [Compound 2, N-[(2-thioxo-1,2-dihydropyridin-3-yl)carbonyl]glycine]
- inhibiting the development of the colour (result in words): very effective
- optical density at 475 nm [1]: 0.0547
- optical density at 475 nm [2]: 0.0561
- optical density at 475 nm [3]: 0.0567
- optical density at 475 nm [4]: 0.0569
- optical density at 475 nm [5]: 0.0574
- optical density at 475 nm [6]: 0.0578
- optical density at 475 nm [7]: 0.0578
- optical density at 475 nm [8]: 0.0578
- optical density at 475 nm [9]: 0.0580
- % inhib (percentage of inhibition of the formation of the coloured product) (test compound 100 μM): 84%
